The text below walks through data of patent publication US20190134004A1, “METHODS AND COMPOSITIONS FOR TREATING BREAST AND PROSTATE CANCER” (The University of Chicago, priority 2016, published 2019).

“Also recorded” adds a separate entry of the source.

For assay [1], the system named is GR (NR3C1) target gene expression. In words: Dex-mediated GR target gene expression (KLK3, SGK1, FKBP5) with BET inhibition in LNCaP-EnzR cells. The format is cell-based, human. The settings on record: three days R1881 and enzalutamide, then Dex or Dex+JQ1, relative to RE, p<0.05. As for the experimental part: FIG. 2. Dex-mediated GR (NR3C1) target gene expression decreased with BETinhibition. LNCaP-EnzR cells were treated for three days of R1881 and enzalutamide (RE), after which cells stimulated with Dex (D) or Dex+JQ1. All conditions relative to RE. Changes all significant p<0.05 with no change in GR expression across conditions. Each series of bars from left to right corresponds to data from RE, RED, and RED-JQl.
The inventors have also verified that the principal BET-BRD proteins inhibited by a BET inhibitor (ABT-075), BRD4 and BRD3 are expressed within the Enza-R CRPC cell lines. […] It was next sought to explore whether for specific, known GR-regulated in PC cells genes (KLK3, SGK1, FKBPS) the BET inhibitor tool compound JQ1 was able to decrease GR mediated gene expression.

The subject of a further assay is LNCaP-EnzaR cells. In words: Cell viability of LNCaP-EnzaR cells treated with R1881, enzalutamide, Dex with or without JQ1. The assay is classed as cell-based, human. As to conditions: 3 days. As for the experimental part: FIG. 3. […] LNCaP-EnzR cells were treated for three days of R1881 and enzalutamide (RE), concurrently with vehicle, Dex (D) or D+JQ1. Error bars=standard error of mean. The bars, from left to right, correspond to RE, RED, and RED-JQ 1.
BET-inhibition decreases Enza-R survival in vitro despite dexamethasone. It has been reported that the BET inhibitor JQ1 (100-500 nM) can decrease Enza-R cell survival, potentially through inhibition of ligand independent AR splice variants.

In a further assay the test system is Enza-R cells. The settings on record: JQ1 100-500 nM; reported; cited from earlier work.
The next assay concerns GR binding sites. In words: GR ChIP-seq in LAPC4 cells after addition of dexamethasone. The format is cell-based, human. The source says: The inventors recently discovered that within PC cells, activated GR can compensate transcriptionally for a large set of genes. […] In a companion experiment using chromatin immunoprecipitation followed by deep sequeicing (ChIP-seq) in LAPC4 cells, the addition of dexamethasone to activate the GR leads to ˜700 new unique GR binding sites, approximately 70 of these new sites are within 5 kilobase (kb) of the transctiption start site of known genes. This argues that the majority of GR chromatin binding and subsequent gene regulation is through regulation at more distant enhancer sites rather then through direct promoter site binding. As bromodomain proteins such as BRD4 cooperate with known transcription factors, including the GR, at such enhancers to enable gene regulation, the inventors sought to establish whether BRD4 and GR cooperate to regulate pro-survival genes in Enza-R CRPC.

Turning to `Cc1sc2c(c1C)C(c1ccc(Cl)cc1)=N[C@@H](CC(=O)OC(C)(C)C)c1nnc(C)n1-2` [JQ1], the “GR mediated gene expression (KLK3, SGK1, FKBPS)” value in assay [1] is recorded as “significantly countered; also recorded: decreased”. The “viable cell numbers (Dex-mediated cell viability)” value with LNCaP-EnzaR cells (JQ1 500 nM with dexamethasone 100 nM, R1881 1 nM, enzalutamide 10 μM) is listed as “significantly decreased”. In the assay with Enza-R cells, the Enza-R cell survival result is reported as “can decrease”.

As to `C[C@@H]1C[C@H]2[C@@H]3CCC4=CC(=O)C=C[C@]4(C)[C@@]3(F)[C@@H](O)C[C@]2(C)[C@@]1(O)C(=O)CO` [Dex, dexamethasone], in the assay on LNCaP-EnzaR cells (dexamethasone 100 nM with R1881 1 nM and enzalutamide 10 μM), the viable cell numbers result is “increases”. Also, the “new unique GR binding sites” value in the assay with GR binding sites is around 700.
